From US6225478A, “Iridoid derivatives and neovascularization inhibitors containing the same as active ingredient” (Tsumura & Co., priority 1999, dated 2001)

Legend:
HUFEC = test: Cell Migration Assay (CMA) Test, inhibitory rate with control (-) correction; assay type: cell-based, human; details: 125 μl of 0.32 mM sample solution in 4.0 ml medium, 80% or more = remarkable; for inhibition at 320 µM (stock): Homo sapiens, 24 h
Method in brief: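 Confluent HUFEC monolayers were scratch-wounded, then cultured 24 h at 37 °C, 5% CO2 in M199 (2+) medium with compound added as 125 μl of a 0.32 mM solution (3.2% DMSO) per 4 ml. Giemsa-stained cells migrating into 1 mm×1 mm blocks counted; inhibition % calculated relative to control (+) and control (−) wells.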

[1] = tested on: human umbilical-vein endothelial cells (HUVEC); test: Tube Formation Assay (TFA) Test, HUVEC in collagen gel; assay type: cell-based; details: Tables 75-83, 0.32 mM sample solution, method as for Compounds 1 through 60; for inhibition at 320 µM (stock): Homo sapiens, HUVEC, read-out: TFA Inhibition rate (%)
Method in brief: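 Inhibition rate (%) of tube formation is computed from tube lengths against control (+) and control (-), measured after 20 h at 37 °C in M-199 with 20% FCS, 30 ng/ml b-FGF and 0.1 μM PMA. Samples were applied to HUVEC on collagen and covered by a second collagen layer (double-layer gel).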

Row | SMILES | inhibition at 320 µM (stock) (HUFEC) [%] | inhibition at 320 µM (stock) [1] [%] | CMA Inhibition rate (%) (HUFEC; 24 hours) | TFA (inhibition rate, %) [1] [%]
1 | COC(=O)C1=CO[C@@H](OC(=O)NCCc2cccs2)[C@@H]2C(C)=CC[C@H]12 [I-92] | 8.1 | 15.2 |  | 
2 | C[C@]12O[C@H]1C[C@@H]1C(C(=O)O)=CO[C@@H](OC(=O)NCCCl)[C@@H]12 [I-67] |  |  | 29.5 | 19.7
3 | COC(=O)C1=CO[C@@H](OC(N)=O)[C@H]2[C@@H]1CC[C@@H]2C [I-179] | 81.3 | 5.2 |  | 
4 | COC(=O)C1=CO[C@@H](OC(=O)NCc2ccccc2)[C@@H]2C(C)=CC[C@H]12 [I-80] | 5.9 | 8.1 |  | 
5 | COC(=O)C1=CO[C@@H](OC(=O)Nc2ccccc2F)[C@@H]2C(C)=CC[C@H]12 [I-158] | 7.3 | 8.5 |  | 
6 | O=C(C1=COC[C@@H]2C(CO)=CC[C@H]12)N1CCN(CCO)CC1 [I-301] | 56 | 15.9 |  | 
7 | COC(=O)C1=CO[C@@H](OC(=O)Nc2c(F)cccc2F)[C@H]2[C@@H]1CC[C@@H]2C [I-276] | 5.7 | 8.2 |  | 
8 | COC(=O)C1=CO[C@@H](OC(=O)N(C)CCc2ccc(OC)c(OC)c2)[C@@H]2C(C)=CC[C@H]12 [I-122] | 10.3 | 9.1 |  | 
9 | CCCCCCNC(=O)O[C@@H]1OC=C(C(=O)OC)[C@H]2CC[C@H](C)[C@@H]12 [I-175] | 19.5 | 7.5 |  | 
10 | COC(=O)C1=COC[C@@H]2C(CSc3nc4ccccc4s3)=CC[C@H]12 [I-292] | 57.9 | 23.5 |  | 
11 | COC(=O)C1=COC[C@@H]2C(COC(=O)NCCCl)CC[C@H]12 (stereo partly shown) [I-297] | 15.2 | 11.2 |  | 
12 | COC(=O)C1=CO[C@@H](OC(=O)Nc2ccc(OC(F)(F)F)cc2)[C@H]2[C@@H]1CC[C@@H]2C [I-266] | 9.4 | 4.9 |  | 
13 | COC(=O)C1=CO[C@@H](OC(=O)Nc2ccccc2)[C@H]2[C@@H]1CC[C@@H]2C [I-271] | 21.6 | 35.1 |  | 
14 | COC(=O)C1=CO[C@@H](OC(=O)NCCc2ccccc2)[C@@H]2C(C)=CC[C@H]12 [I-119] | 18.8 | 4.2 |  | 
15 | COC(=O)C1=CO[C@@H](OC(=O)NCC(C)C)[C@H]2[C@@H]1CC[C@@H]2C [I-190] | 21.8 | 12.8 |  | 
16 | COC(=O)C1=CO[C@@H](OC(=O)NCCc2ccccn2)[C@@H]2C(C)=CC[C@H]12 [I-79] | 13.7 | 4.7 |  | 
17 | COC(=O)C1=CO[C@@H](OC(=O)NCc2ccc(F)cc2F)[C@H]2[C@@H]1CC[C@@H]2C [I-195] | 15.7 | 3.7 |  | 
18 | CNC(=O)O[C@@H]1OC=C(C)[C@H]2CC[C@H](C)[C@@H]12 [I-278] | 125 | 20.2 |  | 
19 | COC(=O)C1=CO[C@@H](OC(=O)NCC#N)[C@@H]2C(C)=CC[C@H]12 [I-132] | 15.6 | 3.9 |  | 

Row | SMILES | inhibition at 320 µM (stock) (HUFEC) [%] | inhibition at 320 µM (stock) [1] [%] | CMA Inhibition rate (%) (HUFEC; 24 hours) | TFA (inhibition rate, %) [1] [%]
20 | COC(=O)C1=CO[C@@H](OC(=O)NCc2nc3ccccc3[nH]2)[C@H]2[C@@H]1CC[C@@H]2C [I-252] | 8.2 | 5.4 |  | 
21 | COC(=O)C1=CO[C@@H](OC(=O)NCCCN(C)C)[C@@H]2C(C)=CC[C@H]12 [I-105] | 14.9 | 5.6 |  | 
22 | COC(=O)C1=COC[C@@H]2C(COC(=O)NCCCl)=CC[C@H]12 [I-296] | 19.9 | 21.3 |  | 
23 | C[C@]12O[C@H]1C[C@@H]1C(C(=O)N3CCN(CCO)CC3)=CO[C@@H](OC(=O)NCCCl)[C@@H]12 [I-68] | 65.6 | 9.2 |  | 
24 | COC(=O)C1=CO[C@@H](OC(=O)N2CCOCC2)[C@@H]2C(C)=CC[C@H]12 [I-85] | 31 | 15.6 |  | 
25 | COC(=O)C1=CO[C@@H](OC(=O)N(C)C)[C@@H]2C(C)=CC[C@H]12 [I-136] | 8.3 | 15.6 |  | 
26 | COC(=O)C1=CO[C@@H](OC(=O)NCc2cccnc2)[C@@H]2C(C)=CC[C@H]12 [I-76] | 7.6 | 4.6 |  | 
27 | CNC(=O)O[C@@H]1OC=C(C(N)=O)[C@H]2C[C@@H]3O[C@]3(C)[C@@H]12 [I-61] | 82.1 | 18.9 |  | 
28 | COC(=O)C1=CO[C@@H](OC(=O)NCC(OC)OC)[C@H]2[C@@H]1CC[C@@H]2C [I-201] | 8.5 | 18.5 |  | 
29 | COC(=O)C1=CO[C@@H](OC(=O)NC(=O)c2ccccc2)[C@H]2[C@@H]1CC[C@@H]2C [I-272] | 5.7 | 7.9 |  | 
30 | COC(=O)C1=CO[C@@H](OC(=O)NCCc2ccc(OC)cc2)[C@@H]2C(C)=CC[C@H]12 [I-98] | 2.7 | 3.8 |  | 
31 | COC(=O)C1=CO[C@@H](OC(=O)NCCc2ccc(F)cc2)[C@@H]2C(C)=CC[C@H]12 [I-107] | 31.2 | 4.4 |  | 
32 | COC(=O)C1=CO[C@@H](OC(=O)NC(=O)CCl)[C@@H]2C(C)=CC[C@H]12 [I-152] | 33.7 | 51 |  | 
33 | COC(=O)C1=CO[C@@H](OC(=O)NCC(C)C)[C@@H]2C(C)=CC[C@H]12 [I-87] | 8 | 8.6 |  | 
34 | COC(=O)C1=CO[C@@H](OC(=O)Nc2ccccc2)[C@@H]2C(C)=CC[C@H]12 [I-170] | 6.7 | 12.9 |  | 
35 | COC(=O)C1=COC[C@@H]2C(C)=CC[C@H]12 [I-302] | 26.6 | 12.5 |  | 
36 | COC(=O)C1=CO[C@@H](OC(=O)Nc2ccc([N+](=O)[O-])cc2)[C@@H]2C(C)=CC[C@H]12 [I-168] | 17.2 | 4.2 |  | 
37 | COC(=O)C1=CO[C@@H](OC(=O)NCCc2ccc(O)cc2)[C@@H]2C(C)=CC[C@H]12 [I-100] | 21.9 | 23.3 |  | 
38 | COC(=O)C1=CO[C@@H](OC(=O)NCc2ccccc2)[C@H]2[C@@H]1CC[C@@H]2C [I-183] | 25.4 | 8.7 |  | 

Row | SMILES | inhibition at 320 µM (stock) (HUFEC) [%] | inhibition at 320 µM (stock) [1] [%] | CMA Inhibition rate (%) (HUFEC; 24 hours) | TFA (inhibition rate, %) [1] [%]
39 | CCOc1ccccc1N1CCN(C(=O)O[C@@H]2OC=C(C(=O)OC)[C@H]3CC=C(C)[C@@H]23)CC1 [I-141] | 12.5 | 23.1 |  | 
40 | COC(=O)C1=CO[C@@H](OC(=O)NCc2cccc(F)c2)[C@@H]2C(C)=CC[C@H]12 [I-127] | 5.3 | 5.3 |  | 
41 | COC(=O)C1=CO[C@@H](OC(=O)NCCO)[C@H]2[C@@H]1CC[C@@H]2C [I-187] | 31.3 | 11.7 |  | 
42 | COC(=O)C1=CO[C@@H](OC(=O)NC(CO)CO)[C@@H]2C(C)=CC[C@H]12 [I-147] | 41 | 10.3 |  | 
43 | CC1=CC[C@@H]2C(C(=O)O)=CO[C@@H](OC(=O)Nc3ccc(F)cc3F)[C@H]12 [I-308] | 32.1 | 23.2 |  | 
44 | COC(=O)C1=CO[C@@H](OC(=O)N2CCSCC2)[C@@H]2C(C)=CC[C@H]12 [I-114] | 9.4 | 6.8 |  | 
45 | COC(=O)C1=CO[C@@H](OC(=O)NCc2ccc(F)cc2F)[C@@H]2C(C)=CC[C@H]12 [I-77] | 5.9 | 7.2 |  | 
46 | COC(=O)C1=CO[C@@H](OC(=O)N2CCN(CCO)CC2)[C@H]2[C@@H]1CC[C@@H]2C [I-180] | 50 | 7.7 |  | 
47 | COC(=O)C1=CO[C@@H](OC(=O)NCc2nc3ccccc3[nH]2)[C@@H]2C(C)=CC[C@H]12 [I-131] | 19.5 | 7.2 |  | 
48 | COC(=O)C1=CO[C@@H](OC(=O)N(CCO)CCO)[C@H]2[C@@H]1CC[C@@H]2C [I-240] | 8.5 | 7.4 |  | 
49 | COC(=O)C1=CO[C@@H](OC(=O)NCC2CCCO2)[C@H]2[C@@H]1CC[C@@H]2C (stereo partly shown) [I-181] | 2.3 | 3.2 |  | 
50 | CCOC(=O)c1ccc(NC(=O)O[C@@H]2OC=C(C(=O)OC)[C@H]3CC[C@H](C)[C@@H]23)cc1 [I-268] | 8.4 | 7.6 |  | 
51 | COC(=O)C1=CO[C@@H](OC(=O)NCc2ccc(Br)cc2)[C@H]2[C@@H]1CC[C@@H]2C [I-245] | 27.3 | 6.3 |  | 
52 | COC(=O)C1=CO[C@@H](OC(=O)NCCCN2CCOCC2)[C@@H]2C(C)=CC[C@H]12 [I-124] | 5.7 | 2.6 |  | 
53 | COC(=O)C1=CO[C@@H](OC(=O)NCc2ccccn2)[C@H]2[C@@H]1CC[C@@H]2C [I-177] | 5 | 15 |  | 
54 | COC(=O)C1=CO[C@@H](OC(=O)N(C)CCN(C)C)[C@@H]2C(C)=CC[C@H]12 [I-86] | 9.9 | 5.2 |  | 
55 | COC(=O)C1=CO[C@@H](OC(=O)NCC2CCCCC2)[C@@H]2C(C)=CC[C@H]12 [I-88] | 16.5 | 4.7 |  | 
56 | COC(=O)C1=CO[C@@H](OC(=O)NCCCN(C)C)[C@H]2[C@@H]1CC[C@@H]2C [I-210] | 8 | 8.9 |  | 
